Laboratory results: article PMC13091788 (NPJ Aging, 2026)

Assays:
[1] = Repeated oral administration: plasma concentration and tissue distribution; assay type: in vivo, mouse; conditions: mice, 7 days
Experimental: In the repeated administration study, animals were treated according to the group allocations as described in the main text and corresponding to Supplementary Figure 2d. Compounds were administered orally either via drinking water or mixed feed for 7 or 28 days, and plasma, brain, heart, and skeletal muscle samples were collected at the final time point (8:00–10:00 a.m.) on the day of sacrifice (n = 4 per group). Blood was drawn from the abdominal vena cava under terminal anesthesia and plasma was separated by centrifugation using heparinized tubes. Tissue samples were homogenized with four volumes of phosphate-buffered saline. Plasma and tissue homogenate samples were precipitated with acetonitrile containing an internal standard (IS) at a volume fourfold or greater than that of the sample, and then centrifuged at 15,000 × g for 10 min at 4 °C. The resulting supernatants were analyzed by LC-MS/MS.
An LCMS-8060 instrument equipped with a Shimadzu Nexera series LC system (Shimadzu) was used. Berberrubine and IS were analyzed in multiple reaction monitoring mode under electronspray ionization conditions. The analytical column used was a CAPCELL PAK C18 MGIII (3 μm × 2.0 mm ID × 35 mm; OSAKA SODA) at 50 °C. The gradient mobile phase consisted of 0.1% formic acid in water (mobile phase A) and 0.1% formic acid in acetonitrile (mobile phase B) at a total flow rate of 1 mL/min. The initial mobile phase composition was 10% B, which was held constant for 0.5 min, increased in a linear fashion to 90% B over 1 min, then held constant for 0.8 min, and finally brought back to the initial condition of 10% B over 0.01 min and reequilibrated for 1 min. The transitions (precursor ion > product ion) of berberrubine and IS (methyl testosterone) are 322.11 > 307.1 and 303.1 > 109.1 (positive), respectively.

[2] = tested on: mitochondria isolated from hearts of aged mice; test: Oxygen consumption analysis of isolated cardiac mitochondria; assay type: in vivo, mouse; conditions: AcA-BRB 0.5 mg/mL in drinking water
Experimental: Mouse heart tissue was homogenized in mitochondrial isolation buffer (210 mM mannitol, 70 mM sucrose, 5 mM HEPES-KOH, 1 mM EGTA, 0.5% fatty acid-free BSA, pH 7.2) using a glass-teflon homogenizer. Homogenates were centrifuged at 27,000 × g for 10 min at 4 °C, and the resulting pellets were resuspended in mitochondrial isolation buffer. Samples were centrifuged at 500 × g for 5 min at 4 °C, and the supernatants were collected and centrifuged at 10,000 × g for 5 min at 4 °C. The pellet was then resuspended in mitochondrial isolation buffer and centrifuged for 5 min at 10,000 × g at 4 °C. The resulting pellets were suspended in BSA-free mitochondrial isolation buffer, and mitochondrial protein concentration was determined using the Bio-Rad Protein Assay Dye Reagent (Bio-Rad Laboratories). Samples were then incubated with an equal volume of mitochondrial isolation buffer and subjected to oxygen consumption analysis.
Isolated mitochondria were diluted with mitochondrial assay solution (220 mM mannitol, 70 mM sucrose, 2 mM HEPES-KOH, 1 mM EGTA, 10 mM KH2PO4, 5 mM MgCl2, 0.2% fatty acid-free BSA, 2 mM malate, 10 mM pyruvate, pH 7.2) to 80 μg/mL. […] OCR was measured under basal conditions and after each injection using an XFe24 extracellular flux analyzer (Seahorse Bioscience).

C2C12 cells = test: Mitochondrial membrane potential (JC-1); assay type: cell-based, mouse; conditions: C2C12, Q-BRB or AcA-BRB 5 or 10 μM, 48 h
Experimental: Mitochondrial membrane potential was assessed using the JC-1 dye (JC-1, T3168, Thermo Fisher Scientific). Cells cultured in 96-well plates were washed twice with PBS and incubated with 1 μM JC-1 for 30 min at 37 °C in the dark. After incubation, cells were washed with PBS, and fluorescence intensities at 590 nm (red) and 530 nm (green) were measured using a microplate reader. The 590/530 nm fluorescence ratio was calculated and used as an index of mitochondrial membrane potential.

[3] = Hepatic microsomal stability assay, mouse; assay type: in vitro ADME; conditions: CLint, 1 μM, 0.2 mg/mL microsomes, NADPH, 30 min
Experimental: Disappearance of the parent compound over time was measured by using the amount of drug at time zero as a reference. After 5 min of preincubation, 1 mM NADPH (final concentration; the same applies to the following) was added to a mixture containing 1 μM of the compound, 0.2 mg/mL of human or mouse liver microsomes (Sekisui XenoTech), 1 mM EDTA and 0.1 M phosphate buffer (pH 7.4). The mixture solution was incubated at 37 °C for 30 min with rotation at 60 rpm. An aliquot of 50 μL of the incubation mixture was added to 250 μL of chilled acetonitrile/internal standard (IS, methyltestosterone). After centrifugation at 3150 × g for 15 min at 4 °C, the supernatants were analyzed by LC-MS/MS. Hepatic microsomal stability (mL/min/kg, CLint) was calculated according to a previous report, using 48.8 (human) or 45.4 (mouse) mg MS protein/g liver and 25.7 (human) or 87.5 (mouse) g liver/kg body weight as scaling factors. Two technical replicates were performed.

[4] = Unbound fraction in human plasma (equilibrium dialysis); assay type: in vitro ADME; conditions: pH 7.4, equilibrium dialysis 6 h, 37 °C, read-out: Plasma protein binding (fraction unbound) human (pH7.4)
Experimental: An equilibrium dialysis apparatus was used to determine the unbound fraction for each compound in human or mouse plasma. High Throughput Dialysis Model HTD96b and Dialysis Membrane Strips MWCO 12–14 kDa (HTDialysis) were used. Plasma was spiked with the test compound (1 μM), and 150 μL aliquots were loaded into the apparatus and dialyzed versus 150 μL of 0.1 M phosphate buffer (pH 7.4) at 37 °C for 6 h by rotation at 80 rpm. The unbound fraction was calculated as the ratio of receiver side (buffer) to donor side (plasma) concentrations. Two technical replicates were performed.

[5] = set-up: method as in PMID 24593257; conditions: cited from earlier work
[6] = 2 mg/mL AcA-BRB in drinking water

SMILES	berberrubine concentration in the heart compared to other tissues [1, 6]	berberrubine level in the brain [1, 6]	ROS production (4-HNE in isolated cardiac mitochondria) [2]	OCR of mitochondria isolated from hearts ([2]; vs controls)	mitochondrial membrane potential (JC-1 590/530 nm) (C2C12 cells)	Liver microsomal metabolic stability mouse (pH7.4) [3]	plasma berberrubine concentration compared to all other groups ([1]; 2 mg/mL in drinking water)	fraction unbound at 6 h, 1 μM [4]	lipophilicity [5]
COc1ccc2cc3[n+](cc2c1O)CCc1cc2c(cc1-3)OCO2 [berberrubine]	tendency toward higher concentrations	exceptionally low	mild rise	improved	remained unchanged				
COc1ccc2cc3[n+](cc2c1O)CCc1cc2c(cc1-3)OCO2 [AcA-BRB, berberrubine acetic acid adduct]						1794 mL/min/kg	significantly higher	0.374	
COc1ccc2cc3n(cc-2c1=O)CCc1cc2c(cc1-3)OCO2 [Q-BRB, quinoid-type berberrubine]						1839 mL/min/kg		0.359	very high
